These results are taken from PMC3747596 (PLoS ONE, 2013).

What is called EC50 is the midpoint of the concentration-response curve. As usually defined, the IC50 is the point on the concentration scale where inhibition reaches its midpoint.

The target of assay [1] is T1, α1A-AR (Homo sapiens, UniProt P35348).
T1 sequence (P35348 1-466): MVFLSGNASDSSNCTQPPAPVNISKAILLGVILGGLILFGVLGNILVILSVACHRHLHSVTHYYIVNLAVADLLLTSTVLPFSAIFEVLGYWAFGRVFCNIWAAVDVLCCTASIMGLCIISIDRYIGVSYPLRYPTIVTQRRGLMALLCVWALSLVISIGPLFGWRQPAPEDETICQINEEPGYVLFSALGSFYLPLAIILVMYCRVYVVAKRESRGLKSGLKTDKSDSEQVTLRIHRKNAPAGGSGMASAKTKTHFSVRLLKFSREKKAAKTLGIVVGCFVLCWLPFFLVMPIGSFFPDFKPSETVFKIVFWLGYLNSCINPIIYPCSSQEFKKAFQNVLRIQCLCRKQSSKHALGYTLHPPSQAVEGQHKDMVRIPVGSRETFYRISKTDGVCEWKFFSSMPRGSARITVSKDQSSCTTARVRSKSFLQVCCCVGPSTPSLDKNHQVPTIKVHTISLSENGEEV
The assay can be described thus: PI hydrolysis assay, α1A-AR. To be noted: hydrolysis of phosphatidylinositol 4,5-bisphosphate (PI).

The target in assay [2] is T2, M1-R (Homo sapiens, UniProt P11229).
T2 sequence (P11229 whole entry): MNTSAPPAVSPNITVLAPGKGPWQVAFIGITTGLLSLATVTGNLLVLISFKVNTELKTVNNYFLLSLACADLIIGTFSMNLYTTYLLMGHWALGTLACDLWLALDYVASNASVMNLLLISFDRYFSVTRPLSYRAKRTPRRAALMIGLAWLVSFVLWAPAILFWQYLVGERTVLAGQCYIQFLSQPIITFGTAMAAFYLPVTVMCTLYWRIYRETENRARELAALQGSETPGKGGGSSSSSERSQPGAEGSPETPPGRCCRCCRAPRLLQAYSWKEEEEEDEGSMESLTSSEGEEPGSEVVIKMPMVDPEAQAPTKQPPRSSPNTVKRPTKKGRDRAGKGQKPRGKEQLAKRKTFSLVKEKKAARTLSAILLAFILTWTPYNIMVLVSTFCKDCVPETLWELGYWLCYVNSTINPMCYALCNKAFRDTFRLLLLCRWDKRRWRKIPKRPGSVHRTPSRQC
For assay [3], the target named is T1, α1A-AR. As to the kind of experiment: Intracellular calcium mobilization assay, α1A-AR. In general terms: A change in cytosolic calcium serves as a functional read-out for many receptors and channels.
Assay [4] deals with non-opioid receptors and transporters. The assay can be described thus: Radioligand displacement panel, non-opioid targets. To be noted: read-out: K i for all non-opioid targets; 43 non-opioid targets. For orientation: In a radioligand displacement assay an active substance lowers the binding of a labelled ligand.
The target of a further assay is T3, μ opioid receptor (Homo sapiens, UniProt P35372).
T3 construct: expressed in transfected cells
T3 sequence (P35372 whole entry): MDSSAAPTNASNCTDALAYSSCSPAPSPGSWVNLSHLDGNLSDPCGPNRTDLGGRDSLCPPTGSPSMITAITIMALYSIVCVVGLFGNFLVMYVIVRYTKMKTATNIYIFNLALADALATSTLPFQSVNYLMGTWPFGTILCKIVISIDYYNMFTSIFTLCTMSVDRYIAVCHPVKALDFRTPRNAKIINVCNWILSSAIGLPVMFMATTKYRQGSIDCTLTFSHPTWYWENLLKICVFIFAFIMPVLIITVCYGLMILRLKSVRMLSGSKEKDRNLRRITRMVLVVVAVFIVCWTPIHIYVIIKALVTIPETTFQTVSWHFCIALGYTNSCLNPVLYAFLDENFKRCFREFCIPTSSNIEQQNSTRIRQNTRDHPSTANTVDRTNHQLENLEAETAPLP
As to the kind of experiment: Radioligand displacement, μ. It counts as binding.

The target in the next assay is T4, δ opioid receptor (Homo sapiens, UniProt P41143).
T4 construct: expressed in transfected cells
T4 sequence (P41143 whole entry): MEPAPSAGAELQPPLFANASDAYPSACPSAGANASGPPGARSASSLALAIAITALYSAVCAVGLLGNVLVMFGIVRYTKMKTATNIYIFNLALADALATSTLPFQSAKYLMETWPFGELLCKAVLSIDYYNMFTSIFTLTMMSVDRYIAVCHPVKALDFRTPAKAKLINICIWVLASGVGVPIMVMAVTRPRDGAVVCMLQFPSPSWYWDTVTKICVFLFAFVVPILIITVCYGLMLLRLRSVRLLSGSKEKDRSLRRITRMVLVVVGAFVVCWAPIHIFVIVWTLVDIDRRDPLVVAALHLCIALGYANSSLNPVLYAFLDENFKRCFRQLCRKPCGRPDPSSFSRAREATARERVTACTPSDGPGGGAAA
As to the kind of experiment: Radioligand displacement, δ. To be noted: K i, radioligand displacement (Table 1). It counts as binding.

Assay [5] deals with T2, M1-R. Also on record: method as in ref 9 = [9]; 9 Inan S (2010) Pharmacological and neuroanatomical analysis of GNTI-induced repetitive behavior in mice [Ph.D. thesis Thesis]. Philadelphia, PA: Temple University. Available: http://digital.library.t. To be noted: at 1 µM; [3H]N-methylscopolamine; cited from earlier work.
The subject of the next assay is κ-OR. Also on record: method as in ref 3 = [3]; 3 Béguin C, Cohen BM (2009) Medicinal Chemistry of Kappa Opioid Receptor Antagonists. In: Dean RL, Bilsky EJ, Negus SS, editors. Opiate Receptors and Antagonists: from Bench to Clinic. New York: Human. The following applies: cited from earlier work.
A further assay addresses T5, human NOP (Homo sapiens, UniProt P41146).
T5 construct: expressed in transfected cells; host or cells: HEK293T
As to the kind of experiment: Inhibition of cyclic AMP production by N/OFQ, GloSensor assay in HEK293T cells. In kind it is cell-based.

Assay [6] has as its target noradrenaline transporter (NET) (Homo sapiens, UniProt P23975). The assay can be described thus: Inhibition of noradrenaline transporter, fluorescent dye uptake. In kind it is cell-based. The following applies: 95% CI = 0.5 to 2.6 µM; read-out: IC50, inhibition of noradrenaline transport.
Assay [7] has as its target nociceptin/orphanin FQ receptor (NOP). Also on record: method as in PMID 8943250. To be noted: cited from earlier work.
In assay [8] the test system is nociceptin/orphanin FQ receptor (NOP). Also on record: method as in PMID 11510482. To be noted: at 10 µM; cited from earlier work.
Assay [9] concerns glucocorticoid receptor NR3C1. Further details: method as in PMID 10875228. To be noted: at 10 µM; cited from earlier work.

T5 sequence (P41146 whole entry): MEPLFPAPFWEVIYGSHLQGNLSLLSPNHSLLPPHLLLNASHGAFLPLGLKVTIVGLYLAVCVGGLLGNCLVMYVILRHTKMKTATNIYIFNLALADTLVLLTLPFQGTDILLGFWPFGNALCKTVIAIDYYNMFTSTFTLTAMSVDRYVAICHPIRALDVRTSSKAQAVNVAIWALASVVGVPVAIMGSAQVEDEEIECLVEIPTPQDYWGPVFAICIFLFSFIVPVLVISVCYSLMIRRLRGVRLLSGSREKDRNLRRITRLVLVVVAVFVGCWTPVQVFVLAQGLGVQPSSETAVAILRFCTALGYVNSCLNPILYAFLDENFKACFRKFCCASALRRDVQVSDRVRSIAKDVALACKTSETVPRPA
Sequence of noradrenaline transporter (NET) (P23975 whole entry): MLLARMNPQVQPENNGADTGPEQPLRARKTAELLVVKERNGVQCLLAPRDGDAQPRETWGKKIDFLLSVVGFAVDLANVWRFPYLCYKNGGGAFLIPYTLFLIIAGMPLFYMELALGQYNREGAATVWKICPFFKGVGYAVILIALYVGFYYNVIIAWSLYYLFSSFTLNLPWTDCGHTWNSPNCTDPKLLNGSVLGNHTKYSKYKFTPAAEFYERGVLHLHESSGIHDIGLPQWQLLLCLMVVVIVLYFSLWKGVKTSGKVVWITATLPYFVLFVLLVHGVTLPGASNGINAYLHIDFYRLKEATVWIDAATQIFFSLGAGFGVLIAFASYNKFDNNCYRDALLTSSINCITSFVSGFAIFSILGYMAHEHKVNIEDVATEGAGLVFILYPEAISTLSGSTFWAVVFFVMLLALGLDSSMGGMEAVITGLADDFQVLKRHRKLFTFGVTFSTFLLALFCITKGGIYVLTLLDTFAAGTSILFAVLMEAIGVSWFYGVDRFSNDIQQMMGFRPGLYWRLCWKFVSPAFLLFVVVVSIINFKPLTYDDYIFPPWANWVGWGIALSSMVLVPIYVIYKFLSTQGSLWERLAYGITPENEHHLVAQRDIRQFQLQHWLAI

As for `N=C(N)Nc1ccc2[nH]c3c(c2c1)C[C@@]1(O)[C@H]2Cc4ccc(O)c5c4[C@@]1(CCN2CC1CC1)[C@H]3O5` [GNTI, 5′-guanidinonaltrindole], on α1A-AR [1], the “effect on maximal response to noradrenaline, PI hydrolysis” value was “slightly reduced the maximal response to noradrenaline”. In addition, the “K B” value at M1-R [2] (antagonism of acetylcholine, calcium mobilization, 95% CI = 3.2 to 4.3 µM) was determined as 3.7 µM. The “activation of M1-R” value on M1-R [2] (calcium mobilization) is on record as “did not activate M1-R”. For the same molecule, the “selectivity for κ-OR over M1-R” value on M1-R [2] (functional potency at κ-OR (ref 3) versus K B at M1-R) is recorded as > 3,000 fold. At α1A-AR [3], the EC50 stood at 41 nM. Also, the “activation of α1A-AR / inhibition of activation by noradrenaline” value at α1A-AR [3] (calcium mobilization, GNTI 30 µM) is given as “neither activated α1A-AR nor inhibited activation by noradrenaline”. For the same molecule, the Emax at α1A-AR [3] (read-out: increase of the maximal response to noradrenaline) was ≤ 20%. Besides, the Ki was > 2000 nM in assay [4], 54 nM at μ opioid receptor and 58 nM at δ opioid receptor. Moreover, on M1-R [5], the “displacement from M1-R” value is given as 52%.
For the molecule `CC(C)[C@@H](CN1CC[C@@](C)(c2cccc(O)c2)[C@@H](C)C1)NC(=O)[C@H]1Cc2ccc(O)cc2CN1` [JDTic], the “K e in κ-OR functional assays” value in the assay with κ-OR was < 20 pM. For the same molecule, the “K B equivalent to the pA2 for a competitive antagonist” value at human NOP (95% CI = 4.6 to 1,200 nM) is given as 73 nM. Besides, the “effect on maximally-effective concentrations of N/OFQ (>100 nM)” value at human NOP (JDTic 30 µM) was “not affected”. The Kb on human NOP (antagonism of N/OFQ, inhibition of cyclic AMP production, read-out: pA2 (converted)) is 79.4 nM. Also, in assay [6], the IC50 was 1100 nM.
On to `Oc1ccc2c3c1O[C@H]1c4[nH]c5c(c4C[C@@]4(O)[C@@H](C2)N(CC2CC2)CC[C@]314)C[C@@]1(O)[C@H]2Cc3ccc(O)c4c3[C@@]1(CCN2CC1CC1)[C@H]5O4` [nor-BNI, Nor-binaltorphimine], for which the Ki in assay [7] was 780 nM. The “binding to NOP” value in [8] was “no binding”. The “binding to glucocorticoid receptor NR3C1” value in [9] is “No binding was detected”.
